In patent US5191079A, “Quinolinecarboxylic acid derivatives” (priority 1990, dated 1993):
≈ marks a conversion by molar mass, not a printed value. Structures can show the parent of a compound that is named as a salt. Where two headings read alike, the source gives them in different places.

How the values were obtained:
Format in all cases: cell-based
[1] = tested on: clinically isolated Staphylococcus aureus; assay: In vitro antibacterial activity against clinical isolates, Experiment 2; details: for MIC50: 50% of strains, read-out: MIC50
Method: (§1) The above solutions were then diluted with sterilized distilled water to prepare a standard solution with a concentration of the test compound: 1000 μg/ml each.
(§2) For the preculture of each microorganism, there was used as the medium a sensitivity test broth (manufactured by Nissui Seiyaku K. K., Japan), and for the measurement of MIC, there was used a sensitivity test agar medium (manufactured by Nissui Seiyaku K. K.).
(§3) The clinically isolates used above were isolated from Nov. 1988 to Jun. 1989 and were obtained from Research Section, Tokyo Clinical Research Center.

[2] = tested on: clinically isolated Enterococcus faecium; assay: as above; details: for MIC / MIC90: 25 clinical strains E. faecium; for MIC90: 90% of strains, read-out: MIC90
Method: as §1, §2, §3

[3] = tested on: clinically isolated Enterococcus faecalis; assay: as above; details: for MIC90: 90% of strains, read-out: MIC90
Method: as §1, §2, §3

[4] = tested on: clinically isolated Staphylococcus epidermidis; assay: as above; details: Staphylococcus epidermidis, 25 clinical strains S. epidermidis; for MIC50: 50% of strains, read-out: MIC50; for MIC90: 90% of strains, read-out: MIC90
Method: as §1, §2, §3

[5] = tested on: Staphylococcus epidermidis IAM 1296; assay: MIC, Experiment 1; details: IAM1296, S. epidermidis IAM 1296, Gram +, read-out: Min. inhib. concentr. (MIC)
Method: The compounds of the present invention ([…] and Q) were each dissolved in dimethylsulfoxide to prepare a solution of 5000 μg/ml in concentration. The compounds of the present invention (I, J and K) and the known compound (Y) were each dissolved in sterilized distilled water to prepare a solution of 5000 μg/ml in concentration. […] The test was carried out by a method as appointed by Japan Society of Chemotherapy [cf. Chemotherapy, 29, 76-79 (1981), TOKYO]. As to Streptococcus pneumoniae and Streptococcus pyogenes, Brain heart infusion broth (manufactured by DIFCO) was used as the medium for the preculture thereof, and a heart infusion agar medium containing 5% defibrinated horse blood (manufactured by Nissui Seiyaku K. K., Japan) was used as the medium for the measurement of minimum inhibitory concentration (MIC). As to other microorganisms, a sensitivity test broth (manufactured by Nissui Seiyaku K. K.) was used as the medium for the preculture thereof, and a sensitivity test agar medium (manufactured by Nissui Seiyaku K. K.) was used as the medium for the measurement of MIC.

[6] = tested on: Streptococcus pyogenes Cook; assay: MIC, Experiment 1; details: S. pyogenes Cook, Gram +, agar with 5% defibrinated horse blood, read-out: Min. inhib. concentr. (MIC)
Method: (§4) The compounds of the present invention (B, E, G, H, M, N, O, P and Q) were each dissolved in dimethylsulfoxide to prepare a solution of 5000 μg/ml in concentration. The compounds of the present invention (I, J and K) and the known compound (Y) were each dissolved in sterilized distilled water to prepare a solution of 5000 μg/ml in concentration. Each solution was diluted with sterilized distilled water to prepare a standard solution with a concentration of each test compound: 1000 μg/ml. The test was carried out by a method as appointed by Japan Society of Chemotherapy [cf. Chemotherapy, 29, 76-79 (1981), TOKYO].
(§5) As to Streptococcus pneumoniae and Streptococcus pyogenes, Brain heart infusion broth (manufactured by DIFCO) was used as the medium for the preculture thereof, and a heart infusion agar medium containing 5% defibrinated horse blood (manufactured by Nissui Seiyaku K. K., Japan) was used as the medium for the measurement of minimum inhibitory concentration (MIC). As to other microorganisms, a sensitivity test broth (manufactured by Nissui Seiyaku K. K.) was used as the medium for the preculture thereof, and a sensitivity test agar medium (manufactured by Nissui Seiyaku K. K.) was used as the medium for the measurement of MIC.

[7] = tested on: Staphylococcus aureus Terajima (IID 670); assay: MIC, Experiment 1; details: IID670, S. aureus Terajima (IID 670), Gram +, read-out: Min. inhib. concentr. (MIC)
Method: as §4, §5

[8] = tested on: Bacillus subtilis ATCC 6633; assay: MIC, Experiment 1; details: ATCC6633, B. subtilis ATCC 6633, Gram +, read-out: Min. inhib. concentr. (MIC)
Method: as §4, §5

[9] = tested on: Staphylococcus aureus IID 803; assay: MIC, Experiment 1; details: IID803, S. aureus IID 803, Gram +, read-out: Min. inhib. concentr. (MIC)
Method: as §4, §5

[10] = tested on: Staphylococcus aureus Cowan I (IID 975); assay: MIC, Experiment 1; details: IID975, S. aureus Cowan I (IID 975), Gram +, read-out: Min. inhib. concentr. (MIC)
Method: as §4, §5

[11] = tested on: Escherichia coli NIHJ JC-2; assay: MIC, Experiment 1; details: NIHJJC2, E. coli NIHJ JC-2, Gram -, read-out: Min. inhib. concentr. (MIC)
Method: as §4, §5

[12] = tested on: Proteus mirabilis IFO 3849; assay: MIC, Experiment 1; details: IFO3849, P. mirabilis IFO 3849, Gram -, read-out: Min. inhib. concentr. (MIC)
Method: as §4, §5

[13] = tested on: Streptococcus pyogenes Su; assay: MIC, Experiment 1; details: S. pyogenes Su, Gram +, agar with 5% defibrinated horse blood, read-out: Min. inhib. concentr. (MIC)
Method: as §4, §5

[14] = tested on: Staphylococcus aureus MS-353; assay: MIC, Experiment 1; details: MS353, S. aureus MS-353, Gram +, read-out: Min. inhib. concentr. (MIC)
Method: as §4, §5

Enterobacter cloacae 963 = assay: MIC, Experiment 1; details: E. cloacae 963, Gram -, read-out: Min. inhib. concentr. (MIC)
Method: as §4, §5

[15] = tested on: Streptococcus pneumoniae IID 552; assay: MIC, Experiment 1; details: IID552, S. pneumoniae IID 552, Gram +, agar with 5% defibrinated horse blood, read-out: Min. inhib. concentr. (MIC)
Method: as §4, §5

Bacillus cereus IAM 1029 = assay: MIC, Experiment 1; details: IAM1029, B. cereus IAM 1029, Gram +, read-out: Min. inhib. concentr. (MIC)
Method: as §4, §5

[16] = tested on: Streptococcus pyogenes Sv; assay: MIC, Experiment 1; details: S. pyogenes Sv, Gram +, agar with 5% defibrinated horse blood, read-out: Min. inhib. concentr. (MIC)
Method: as §4, §5

[17] = tested on: Pseudomonas aeruginosa NCTC 10490; assay: MIC, Experiment 1; details: NCTC10490, P. aeruginosa NCTC 10490, Gram -, read-out: Min. inhib. concentr. (MIC)
Method: as §4, §5

[18] = 25 clinical strains S. aureus incl. 16 methicillin resistant
[19] = 25 clinical strains E. faecalis

Structure (SMILES) | MIC [1, 18] [µg/mL] | MIC50 [1, 18] [µg/mL] | MIC50 [2] [µg/mL] | MIC [2] [µg/mL] | MIC90 [2] [µg/mL] | MIC [3, 19] [µg/mL] | MIC90 [3, 19] [µg/mL] | MIC [4] [µg/mL] | MIC50 [4] [µg/mL] | MIC90 [4] [µg/mL] | MIC [5] [µg/mL] | MIC [6] [µg/mL] | MIC [7] [µg/mL] | MIC [8] [µg/mL] | MIC [9] [µg/mL] | MIC [10] [µg/mL] | MIC [11] [µg/mL] | MIC [12] [µg/mL] | MIC [13] [µg/mL] | MIC [14] [µg/mL] | other results
CN1Cc2csc3c(C(=O)O)c(=O)c4cc(F)c(N5CCN(C)C(CO)C5)c1c4n23 (stereo not drawn) [Compound (I), 9,1-(Methylimino)methano-7-fluoro-8-(3-hydroxymethyl-4-methyl-1-piperazinyl)-5-oxo-5H-thiazolo-[3,2-a]quinoline-4-carboxylic acid hydrochloride] | 0.1 to 12.5 | 0.2 | 3.13 | 0.2 to 25 | 12.5 | 0.2 to 12.5 | 12.5 | 0.05 to 3.13 | 0.1 | 3.13 | 0.2 | 0.05 | 0.2 | 0.1 | 0.2 | 0.2 | 0.2 | 0.78 | 0.05 | 0.39 | MIC90 [1]: 6.25 µg/mL; MIC50 [3]: 0.39 µg/mL; MIC (Enterobacter cloacae 963): 0.2 µg/mL; MIC [15]: 0.1 µg/mL; MIC (Bacillus cereus IAM 1029): 0.2 µg/mL; MIC [16]: 0.1 µg/mL; MIC [17]: 0.78 µg/mL
CN1Cc2csc3c(C(=O)O)c(=O)c4cc(F)c(N5CCOC(CCl)C5)c1c4n23 (stereo not drawn) [Compound (D), 9,1-(Methylimino)methano-7-fluoro-8-(2-chloromethylmorpholino)-5-oxo-5H-thiazolo[3,2-a]quinoline-4-carboxylic acid] | 0.006 to 0.2 (≈ 0.0137 to 0.457 µM) | 0.013 (≈ 0.0297 µM) | 0.39 (≈ 0.891 µM) | 0.05 to 3.13 (≈ 0.114 to 7.15 µM) | 3.13 (≈ 7.15 µM) | 0.05 to 3.13 (≈ 0.114 to 7.15 µM) | 1.56 (≈ 3.56 µM) | 0.006 to 0.39 (≈ 0.0137 to 0.891 µM) | 0.013 (≈ 0.0297 µM) | 0.2 (≈ 0.457 µM) | 0.025 (≈ 0.0571 µM) | 0.05 (≈ 0.114 µM) | 0.025 (≈ 0.0571 µM) | ≤ 0.006 | ≤ 0.006 | 0.013 (≈ 0.0297 µM) | 0.2 (≈ 0.457 µM) | 0.39 (≈ 0.891 µM) | 0.025 (≈ 0.0571 µM) | 0.013 (≈ 0.0297 µM) | MIC90 ([1]; 25 clinical strains S. aureus incl. 16 methicillin resistant, 90% of strains, read-out: MIC90): 0.2 µg/mL (≈ 0.457 µM); MIC50 ([3]; 25 clinical strains E. faecalis, 50% of strains, read-out: MIC50): 0.2 µg/mL (≈ 0.457 µM); MIC (Enterobacter cloacae 963): 0.39 µg/mL (≈ 0.891 µM); MIC [15]: 0.05 µg/mL (≈ 0.114 µM); MIC (Bacillus cereus IAM 1029): 0.025 µg/mL (≈ 0.0571 µM); MIC [16]: 0.05 µg/mL (≈ 0.114 µM); MIC [17]: 0.39 µg/mL (≈ 0.891 µM)
